According to ChEMBL document CHEMBL1201862, “PubChem BioAssay data set” (2004):
Activity calls are given as the source filed them. Cut-off read from the data, not from the text of the source, for most assays here: active = IC50 of 10 µM or less and inactive = more.

Legend:
Assay type in all cases: functional
[1] = target: T1, Apoptotic protease-activating factor 1 (Homo sapiens, UniProt O14727); experiment: SAR analysis of small molecule Activators of Apaf-1 in a Fluorescent assay.; conditions: read-out: EC50_Mean;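 note: caspase-3 cleavage of fluorogenic Rh110 DEVD substrate downstream of apoptosome activation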
T1 sequence (O14727 whole entry): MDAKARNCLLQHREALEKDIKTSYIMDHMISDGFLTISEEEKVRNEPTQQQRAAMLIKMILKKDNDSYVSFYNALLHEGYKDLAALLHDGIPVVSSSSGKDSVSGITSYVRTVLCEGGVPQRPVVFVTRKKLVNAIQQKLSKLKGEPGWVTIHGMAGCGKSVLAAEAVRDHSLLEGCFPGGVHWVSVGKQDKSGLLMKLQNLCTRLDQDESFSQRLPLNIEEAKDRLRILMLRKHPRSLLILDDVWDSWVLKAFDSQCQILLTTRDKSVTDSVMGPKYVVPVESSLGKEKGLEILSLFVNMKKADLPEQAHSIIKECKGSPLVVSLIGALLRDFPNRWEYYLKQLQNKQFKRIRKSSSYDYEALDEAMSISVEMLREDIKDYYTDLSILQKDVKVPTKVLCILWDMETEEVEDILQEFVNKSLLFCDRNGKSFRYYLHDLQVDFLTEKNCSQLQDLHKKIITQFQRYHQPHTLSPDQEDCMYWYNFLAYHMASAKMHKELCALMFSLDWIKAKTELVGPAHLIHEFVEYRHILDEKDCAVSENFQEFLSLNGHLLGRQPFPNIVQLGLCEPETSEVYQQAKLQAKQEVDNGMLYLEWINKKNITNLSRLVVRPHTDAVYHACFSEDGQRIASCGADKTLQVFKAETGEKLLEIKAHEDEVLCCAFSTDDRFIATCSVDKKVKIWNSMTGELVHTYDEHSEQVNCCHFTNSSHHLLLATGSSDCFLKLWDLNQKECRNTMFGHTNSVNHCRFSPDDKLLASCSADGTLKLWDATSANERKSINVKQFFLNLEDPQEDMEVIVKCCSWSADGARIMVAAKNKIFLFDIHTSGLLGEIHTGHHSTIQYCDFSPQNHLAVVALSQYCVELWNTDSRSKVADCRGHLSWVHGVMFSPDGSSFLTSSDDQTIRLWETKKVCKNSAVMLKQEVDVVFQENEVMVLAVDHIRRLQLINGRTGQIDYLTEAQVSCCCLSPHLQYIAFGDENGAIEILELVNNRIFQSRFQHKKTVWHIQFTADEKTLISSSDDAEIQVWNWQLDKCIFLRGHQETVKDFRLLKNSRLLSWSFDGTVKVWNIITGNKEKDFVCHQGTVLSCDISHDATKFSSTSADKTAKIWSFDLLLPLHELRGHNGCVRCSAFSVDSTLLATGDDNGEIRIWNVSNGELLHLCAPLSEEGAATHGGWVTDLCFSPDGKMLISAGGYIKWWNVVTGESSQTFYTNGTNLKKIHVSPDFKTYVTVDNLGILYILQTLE

[2] = target: Neuropeptides B/W receptor type 1 (Homo sapiens, UniProt P48145); experiment: GPR7 antagonist potency, late-stage follow-up, cell-based, fluorescence, dose response, set 6 (AID 588583)
[3] = target: Melanin-concentrating hormone receptor 1 (Homo sapiens, UniProt Q99705); experiment: Late-stage fluorescence-based counterscreen for antagonists of the G-protein coupled receptor 7 (GPR7): cell-based dose response assay to identify antagonists of the melanin-concentrating hormone receptor 1 (MCHR1) Set 6.
Melanin-concentrating hormone receptor 1, sequence (Q99705 whole entry): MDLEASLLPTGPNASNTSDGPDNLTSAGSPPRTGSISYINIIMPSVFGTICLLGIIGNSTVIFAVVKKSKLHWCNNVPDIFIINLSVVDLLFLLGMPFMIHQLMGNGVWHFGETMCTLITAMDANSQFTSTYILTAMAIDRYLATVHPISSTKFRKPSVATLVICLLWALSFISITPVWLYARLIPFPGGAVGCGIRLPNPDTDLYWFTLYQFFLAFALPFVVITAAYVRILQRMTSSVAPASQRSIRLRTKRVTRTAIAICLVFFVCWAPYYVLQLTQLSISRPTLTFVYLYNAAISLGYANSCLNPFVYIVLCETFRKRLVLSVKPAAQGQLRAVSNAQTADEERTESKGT

Neuropeptides B/W receptor type 1, sequence (P48145 whole entry): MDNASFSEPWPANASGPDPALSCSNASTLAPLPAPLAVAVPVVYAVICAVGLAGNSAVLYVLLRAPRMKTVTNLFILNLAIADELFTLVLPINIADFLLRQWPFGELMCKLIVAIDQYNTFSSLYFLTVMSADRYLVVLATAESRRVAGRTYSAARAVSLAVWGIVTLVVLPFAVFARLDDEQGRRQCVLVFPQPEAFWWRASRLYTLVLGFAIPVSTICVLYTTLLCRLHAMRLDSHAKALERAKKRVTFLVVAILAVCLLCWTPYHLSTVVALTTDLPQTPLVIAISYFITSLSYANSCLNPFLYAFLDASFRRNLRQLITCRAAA

| Structure (SMILES) | EC50 [1] | IC50 [2] | IC50 [3] |
| --- | --- | --- | --- |
| Cc1cc(C)c(O)c(N2CC(C(=O)O)CC2=O)c1 (stereo not given) | > 100000 nM (inactive) |  |  |
| COc1ccc(Oc2c(Cl)cnn(Cc3ccccc3Br)c2=O)cc1 |  | 506 nM (active) | 506 nM (active) |
| CC(C#N)(c1ccccc1)c1c(Br)cnn(Cc2cccc3ccccc23)c1=O (stereo not given) |  | 326 nM (active) | 326 nM (active) |
